Measured values as given in ChEMBL document CHEMBL1201862, “PubChem BioAssay data set” (2004).
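How tested: cells in 96-well plates exposed to compound for 48 hours at five concentrations. GI50 marks 50% less growth.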 The source made the active and inactive calls. Rule as the data show it: active = GI50 up to about 1.1 µM and inactive = higher.

What was measured:
Test in all cases: NCI tumour cell line growth inhibition, 48 h
[1] = test system: MOLT-4
[2] = test system: OVCAR-8
[3] = test system: MDA-MB-435
[4] = test system: SK-MEL-2
[5] = test system: KM12
[6] = test system: CCRF-CEM
[7] = test system: SF-295
[8] = test system: SK-OV-3
[9] = test system: IGROV-1
[10] = test system: A498
[11] = test system: OVCAR-3
[12] = test system: OVCAR-5
[13] = test system: NCI-H23
[14] = test system: DU-145
[15] = test system: EKVX
[16] = test system: SN12C
[17] = test system: HOP-62
[18] = test system: HL-60
[19] = test system: SW-620
[20] = test system: 786-0
[21] = test system: HT-29
[22] = test system: LOX IMVI
[23] = test system: M14
[24] = test system: PC-3
[25] = test system: Malme-3M
[26] = test system: SNB-19
[27] = test system: HCT-15
[28] = test system: A549
[29] = test system: RPMI-8226
[30] = test system: NCI/ADR-RES
[31] = test system: UACC-62
[32] = test system: SF-539
[33] = test system: ACHN
[34] = test system: CAKI-1
[35] = test system: MDA-MB-231
[36] = test system: MCF7
[37] = test system: COLO 205
[38] = test system: SK-MEL-5
[39] = test system: T47D
[40] = test system: MDA-N
[41] = test system: Hs-578T
[42] = test system: UACC-257
[43] = test system: BT-549
[44] = test system: K562
[45] = test system: NCI-H226
[46] = test system: TK-10
[47] = test system: NCI-H460
[48] = test system: NCI-H522
[49] = test system: OVCAR-4
[50] = test system: UO-31
[51] = test system: SK-MEL-28
[52] = test system: RXF 393
[53] = test system: HCT-116
[54] = test system: U-251
[55] = test system: HCC 2998
[56] = test system: SF-268
[57] = test system: SR
[58] = test system: HOP-92
[59] = test system: SNB-75

Compound: Cc1[nH]c2c(C)ccc(C)c2c1CC(=O)O
- GI50 [1]: 26.5 µM (inactive)
- GI50 [2]: 32.5 µM (inactive)
- GI50 [3]: 42.3 µM (inactive)
- GI50 [4]: 18.2 µM (inactive)
- GI50 [5]: 32.2 µM (inactive)
- GI50 [6]: 20 µM (inactive)
- GI50 [7]: 50.1 µM (inactive)
- GI50 [8]: > 100 µM (inactive)
- GI50 [9]: 17.6 µM (inactive)
- GI50 [10]: 57 µM (inactive)
- GI50 [11]: 31.3 µM (inactive)
- GI50 [12]: > 100 µM (inactive)
- GI50 [13]: 51.8 µM (inactive)
- GI50 [14]: > 100 µM (inactive)
- GI50 [15]: 39 µM (inactive)
- GI50 [16]: 34.3 µM (inactive)
- GI50 [17]: 81.5 µM (inactive)
- GI50 [18]: 5.43 µM (inactive)
- GI50 [19]: 42.9 µM (inactive)
- GI50 [20]: 43.9 µM (inactive)
- GI50 [21]: 43.3 µM (inactive)
- GI50 [22]: 36.5 µM (inactive)
- GI50 [23]: 41 µM (inactive)
- GI50 [24]: 22 µM (inactive)
- GI50 [25]: 37.7 µM (inactive)
- GI50 [26]: 92 µM (inactive)
- GI50 [27]: 53.5 µM
- GI50 [28]: 42.3 µM (inactive)
- GI50 [29]: 25.7 µM (inactive)
- GI50 [30]: 54.6 µM (inactive)
- GI50 [31]: 43.1 µM (inactive)
- GI50 [32]: 94.2 µM (inactive)
- GI50 [33]: 59.4 µM (inactive)
- GI50 [34]: 43 µM (inactive)
- GI50 [35]: 13 µM (inactive)
- GI50 [36]: 36.6 µM (inactive)
- GI50 [37]: 40 µM (inactive)
- GI50 [38]: 48.9 µM (inactive)
- GI50 [39]: 41.8 µM (inactive)
- GI50 [40]: 31.5 µM (inactive)
- GI50 [41]: 25.2 µM (inactive)
- GI50 [42]: 30.5 µM (inactive)
- GI50 [43]: 54.6 µM (inactive)
- GI50 [44]: 34.4 µM (inactive)
- GI50 [45]: 33.7 µM (inactive)
- GI50 [46]: 57 µM (inactive)
- GI50 [47]: 31 µM (inactive)
- GI50 [48]: 24.2 µM (inactive)
- GI50 [49]: 38.1 µM (inactive)
- GI50 [50]: 37 µM (inactive)
- GI50 [51]: 61.8 µM (inactive)
- GI50 [52]: > 100 µM (inactive)
- GI50 [53]: 38.5 µM (inactive)
- GI50 [54]: 35.9 µM (inactive)
- GI50 [55]: 29.6 µM (inactive)
- GI50 [56]: 44.2 µM (inactive)

Compound: Cc1ccc(S(=O)(=O)NC(=O)NC(CC(=O)O)C(=O)O)cc1 (stereo not given)
- GI50 [1]: > 100 µM (inactive)
- GI50 [2]: > 100 µM (inactive)
- GI50 [4]: > 100 µM (inactive)
- GI50 [5]: > 100 µM (inactive)
- GI50 [6]: > 100 µM (inactive)
- GI50 [7]: > 100 µM (inactive)
- GI50 [8]: > 100 µM (inactive)
- GI50 [9]: > 100 µM (inactive)
- GI50 [12]: > 100 µM (inactive)
- GI50 [13]: > 100 µM (inactive)
- GI50 [14]: > 100 µM (inactive)
- GI50 [16]: > 100 µM (inactive)
- GI50 [17]: > 100 µM (inactive)
- GI50 [18]: > 100 µM (inactive)
- GI50 [19]: > 100 µM (inactive)
- GI50 [20]: > 100 µM (inactive)
- GI50 [21]: > 100 µM (inactive)
- GI50 [22]: > 100 µM (inactive)
- GI50 [23]: > 100 µM (inactive)
- GI50 [24]: > 100 µM (inactive)
- GI50 [25]: > 100 µM (inactive)
- GI50 [26]: > 100 µM (inactive)
- GI50 [27]: > 100 µM
- GI50 [57]: > 100 µM (inactive)
- GI50 [28]: > 100 µM (inactive)
- GI50 [29]: > 100 µM (inactive)
- GI50 [58]: > 100 µM (inactive)
- GI50 [30]: > 100 µM (inactive)
- GI50 [59]: > 100 µM (inactive)
- GI50 [31]: > 100 µM (inactive)
- GI50 [32]: > 100 µM (inactive)
- GI50 [33]: > 100 µM (inactive)
- GI50 [35]: > 100 µM (inactive)
- GI50 [36]: > 100 µM (inactive)
- GI50 [37]: > 100 µM (inactive)
- GI50 [38]: > 100 µM (inactive)
- GI50 [39]: > 100 µM (inactive)
- GI50 [40]: > 100 µM (inactive)
- GI50 [41]: > 100 µM (inactive)
- GI50 [42]: > 100 µM (inactive)
- GI50 [43]: > 100 µM (inactive)
- GI50 [44]: > 100 µM (inactive)
- GI50 [46]: > 100 µM (inactive)
- GI50 [47]: > 100 µM (inactive)
- GI50 [48]: > 100 µM (inactive)
- GI50 [49]: > 100 µM (inactive)
- GI50 [50]: > 100 µM (inactive)
- GI50 [51]: > 100 µM (inactive)
- GI50 [52]: > 100 µM (inactive)
- GI50 [53]: > 100 µM (inactive)
- GI50 [54]: > 100 µM (inactive)
- GI50 [56]: > 100 µM (inactive)

Compound: COc1ccc(/C(C)=N/NC(=S)N(C)C)c(O)c1
- GI50 [1]: 4.57 µM (inactive)
- GI50 [3]: 27.7 µM (inactive)
- GI50 [4]: 14.4 µM (inactive)
- GI50 [5]: 4.92 µM (inactive)
- GI50 [6]: 4.49 µM (inactive)
- GI50 [7]: 4.05 µM (inactive)
- GI50 [8]: 3.84 µM (inactive)
- GI50 [9]: 4.31 µM (inactive)
- GI50 [11]: 4.85 µM (inactive)
- GI50 [12]: 3.42 µM (inactive)
- GI50 [13]: 8.11 µM (inactive)
- GI50 [14]: 11.5 µM (inactive)
- GI50 [15]: 5.41 µM (inactive)
- GI50 [16]: 11.7 µM (inactive)
- GI50 [17]: 5.61 µM (inactive)
- GI50 [19]: 5.28 µM (inactive)
- GI50 [21]: 3.8 µM (inactive)
- GI50 [22]: 2.42 µM (inactive)
- GI50 [23]: 2.72 µM (inactive)
- GI50 [24]: 6.4 µM (inactive)
- GI50 [26]: 22 µM (inactive)
- GI50 [57]: 36.3 µM (inactive)
- GI50 [28]: 4.52 µM (inactive)
- GI50 [29]: 7.74 µM (inactive)
- GI50 [58]: 29.5 µM (inactive)
- GI50 [59]: 43.8 µM (inactive)
- GI50 [31]: 4.35 µM (inactive)
- GI50 [33]: 6.41 µM (inactive)
- GI50 [34]: 4.92 µM (inactive)
- GI50 [35]: 5.96 µM (inactive)
- GI50 [37]: 2.59 µM (inactive)
- GI50 [38]: 12.1 µM (inactive)
- GI50 [39]: 7.48 µM (inactive)
- GI50 [40]: 16 µM (inactive)
- GI50 [41]: 53.1 µM (inactive)
- GI50 [42]: 20.9 µM (inactive)
- GI50 [43]: 18.9 µM (inactive)
- GI50 [45]: 4.09 µM (inactive)
- GI50 [47]: 14 µM (inactive)
- GI50 [48]: 12.9 µM (inactive)
- GI50 [49]: 2.32 µM (inactive)
- GI50 [50]: 5.65 µM (inactive)
- GI50 [51]: 16.6 µM (inactive)
- GI50 [53]: 6.95 µM (inactive)
- GI50 [54]: 7.83 µM (inactive)
- GI50 [55]: 24.6 µM (inactive)
- GI50 [56]: 12 µM (inactive)
